The melting point is the temperature, or range, at which the solid turns liquid.

From a melting point compilation (Tetko et al.; mined from patent text by program, amines drawn as free bases though some values may be those of a salt) come the findings set out here.

Compound `CCOCn1c(Oc2ccccc2)c(C(C)C)c(=O)[nH]c1=O` came in with a melting point of 137 to 138 °C. With `O=C(O)c1cccc(CN2CCN(c3ccc(NC(=O)c4ccccc4-c4ccc(C(F)(F)F)cc4)cc3)CC2)c1`, the melting point lay in the range of 225 to 227 °C. The result for `N#CCCn1c2ccc(O)cc2c2c3c(c(-c4ccccc4Cl)cc21)C(=O)NC3=O` reads 332 to 336 °C. `CCOC(=O)c1c(C)cc2c(c1C)C(=O)OC2(C)O` (stereo unspecified): the melting point is 118 to 120 °C.

Consider `CCCCCCCCCCc1ccc2ccc(OC)cc2c1`, for which the melting point lay within 29.9 to 30.8 °C.

`COc1cc(C(=O)O)ccc1Cc1cn(CCC(N)=O)c2ccc(C(=O)NCC3CCCC3)cc12` came in with a melting point of 129 to 131 °C. The result for `CCOC(=O)C(=CNc1ccc2c(c1)CCC2)C(=O)OCC` reads 25 to 30 °C. Consider `COc1ccc(-c2cc(C=O)cc3ccoc23)cc1`, for which the melting point is 79 to 80 °C. The figure for `c1ccc(-c2ccc(CN3CCN(c4ccccc4)CC3)s2)cc1` is 88 °C. The result for `Nc1ncnc2c1ncn2CCCCOCP(=O)(O)O` reads 67 °C; that for `CSc1nn2c(N)cc(C)nc2c1S(=O)(=O)c1ccccc1`, greater than 230 °C; that for `N#Cc1ccc2c(c1)COC2c1ccc(F)cc1` (stereo unspecified), 96 to 98 °C.

The compound `CCOc1ccc2cc(-c3nc(-c4ccccc4)no3)c(=O)oc2c1` yielded a melting point of 229 °C. Take `COc1cc(C(C)=O)ccc1OCCCN1C2CCC1CC(c1nsc3cc(F)ccc13)C2` (stereo unspecified): the melting point was in the range of 118 to 119 °C.

The compound `CCOC(=O)Cc1ccc(NC(=O)/C=C/c2cnn(C)c2-c2ccc(F)cc2)cc1` displayed a melting point of 177 to 178 °C. In the case of `O=C1CCc2ccc(OCCCN3CCCN(c4cccc(Cl)c4Cl)CC3)cc2N1`, the melting point fell in the range of 130 to 131 °C.

`COC(=O)Cc1ccc[nH]c1=O` had a melting point of 183 to 184 °C. The figure for `CSC1=NS(=O)(=O)CCCS1` is 91 °C; for `CCCCCCCCCCCCCCSc1ccc(Cl)c(N)c1` it is 60.5 to 61.5 °C.

`CC(=O)Oc1cc(-c2nc3ccccc3[nH]c2=O)cc([N+](=O)[O-])c1OC(C)=O`: the melting point is 241 to 243 °C.

Regarding `O=C(O)c1ccc2cc(-c3cc4c(c(C56CC7CC(CC(C7)C5)C6)c3)OCO4)ccc2c1`, the melting point fell in the range of 300 to 305 °C. `O=C(NC1CC1)c1[nH]c2ccc(Cl)cc2c1S(=O)(=O)c1ccccc1` had a melting point of 242 to 243 °C.

As for `CCOC(=O)c1nc(-c2cccc3ccccc23)no1`, the melting point lay in the range of 68 to 70 °C. `CN1C2CCC1[C@H](CO)[C@@H](c1cccs1)C2` (stereo partly specified) displayed a melting point of 154 to 158 °C.

`O=C(O)Cn1c(=O)c(=O)[nH]c2ccc3ccc(-n4ccc(CN5CCc6ccccc6C5)c4)cc3c21` had a melting point greater than 250 °C.

Turning to `CCn1c(=O)ccc2cnc(Nc3ccc(-c4ccccc4)cc3)nc21`, the melting point is 207 to 208 °C.

Regarding `Cc1ccc(C(=O)NC(NC(=S)Nc2c(F)cccc2F)C(F)(F)F)cc1` (stereo unspecified), the melting point was 185 to 186 °C. The figure for `COC(=O)NCc1c[nH]c(=S)n1[C@H]1CCc2c(F)cc(F)cc2C1` is 220 to 222 °C; for `Fc1cc(CC2(Cc3ccncc3)c3cccnc3-c3ncccc32)ccn1` it is 228 to 230 °C. The figure for `Cc1ccc(CNC(=O)C2=C(C(=O)Nc3ccc(Br)cc3F)CCCC2)cc1` is 167 to 168 °C; for `Cc1cn(-c2ccc(N3C[C@H](COS(C)(=O)=O)OC3=O)cc2F)cn1` it is 151 to 153 °C. As to `Nc1cc(Cl)c(OCC(F)(F)F)cc1F`, the melting point lay within 40 to 41 °C.

Compound `Cc1nn(C)c(O)c1C(=O)c1ccc(Cl)cc1Cl` yielded a melting point of 165 to 166 °C. On to `Cn1nnc2ccc(C(O)c3ccccc3)cc21` (stereo unspecified), for which the melting point was 145 °C. The figure for `COC(=O)c1ccc(O)cc1NC(=O)C=Cc1ccc(-c2ccccc2)cc1` is 292 to 296 °C; for `O=C(Oc1ccc(F)cc1Cl)Oc1ccc(F)cc1Cl` it is 91 to 92 °C. The result for `CC(=O)C1CCC2C3CC=C4C=CCCC4(C)C3CCC12C` (stereo unspecified) reads 135 to 136 °C. In turn, `CCN(CC)c1nc(Cc2ccc(OC)c(OC)c2)nc2sc(C#N)c(C)c12` came in with a melting point of 107 to 109 °C.

For the compound `CCCC(Cl)COC(=O)c1ccc(-c2ccc(-c3ccc(C(=O)OCC(Cl)CCC)cc3)cc2)cc1` (stereo unspecified), the melting point was in the range of 129 to 131 °C. For `CC(=O)Nc1ccc(C2CN(C)Cc3c(Cl)cc(Cl)cc32)cc1` (stereo unspecified), the melting point was in the range of 205 to 206 °C. The figure for `CCOC(=O)CC(=O)NS(=O)(=O)c1ccc([N+](=O)[O-])cc1` is 97 °C; for `O=C(O)COc1cccc2c1CCc1sc(S(=O)(=O)C(c3ccc(Cl)cc3)c3ccc(Cl)cc3)nc1-2` it is 197 to 199 °C.

`O=C1N(Cc2ccc(O)cc2)c2ccccc2C12COc1cc3c(cc12)OCCO3` (stereo unspecified): the melting point lay within 243 to 244 °C.

The compound `O=C(O)[C@@H]1C[C@@H](SC(c2ccccc2)(c2ccccc2)c2ccccc2)CN1S(=O)(=O)c1ccc2ccccc2c1` displayed a melting point of 64 to 69 °C. The figure for `CCn1ncc2c(-c3cncc(C)c3)c(CCC(=O)O)c(-c3ocnc3C)nc21` is 184 to 186 °C; for `CC(C)(C)C(=O)OC(COc1cccc2[nH]ncc12)CN1CCC(COc2ccccc2)CC1` (stereo unspecified) it is 116 to 118 °C. `CC(=O)NCCCC(=O)c1ccc(Cl)cc1C(CC(=O)O)c1ccccc1` (stereo unspecified) displayed a melting point of 114 to 116 °C. The figure for `CCCc1ccnc2c(=O)[nH]c(-c3cc(S(=O)(=O)NCCN4CCOCC4)ccc3OCC)nc12` is 165 to 166 °C; for `NC(=NO)C1CCN(c2ccc3c(NC(=O)CC4CCCCC4)c(Cl)ccc3n2)CC1` it is 246 to 247 °C. The figure for `CCOc1nn(Cc2ccc(OCc3nc(-c4ccccc4)oc3C)cc2)cc1CC(=O)O` is 125 to 126 °C; for `CCn1c2ccccc2c2cc(N(c3ccccc3)c3ccccc3)ccc21` it is 152 to 154 °C. In turn, `C=CCC(CC=C)(CC=C)C(=O)O[C@H]1C[C@H](O)C=C2C=C[C@H](C)[C@H](CC[C@@H]3C[C@@H](O)CC(=O)O3)[C@H]21` came in with a melting point of 118 to 119 °C.

Regarding `CC(=O)Oc1cc2c(cc1C(C)(C)CC(C)(C)C)OC(C)(COc1ccc([N+](=O)[O-])cc1)CC2=O` (stereo unspecified), the melting point was in the range of 166 to 167 °C. For `CCOC(=O)CSc1nc(Cl)c(C)c(Cl)n1`, the melting point is 66 to 70 °C. `CC(=O)NC[C@H]1CN(c2ccc(N3CCC(O)(CN=[N+]=[N-])CC3)cc2)C(=O)O1` had a melting point of 134 to 136 °C. With `CC(C)(C)OC(=O)c1ccccc1-c1ccc(CBr)cc1`, the melting point lay in the range of 98 to 101 °C. Regarding `CC(=O)NC1CCC(N2CCNC2=O)CC1` (stereo unspecified), the melting point lay within 211 to 230 °C.

Compound `COc1ccc(Cl)cc1C(=O)NC1Cc2cc(S(=O)(=O)NC(=S)NC(C)C)c(OC)cc2OC1(C)C` (stereo unspecified) registered a melting point of 201 to 202 °C. The figure for `CNC(=S)NCCN1CCCCC1` is 166 °C; for `CC(C)c1ccc(S(=O)(=O)c2ccccc2)cc1S(=O)(=O)NC1CCN(C(=O)c2ccc(F)cc2)CC1` it is 218 to 220 °C. `COC(=O)Nc1nc(C)c(C(=O)c2sc(NC(=O)OC)nc2C)s1` had a melting point of 188 to 189 °C.
